By IC50 is commonly meant the concentration that inhibits the measured activity by half. A high value points to a need for much substance.

SMILES strings stand for the structures.

This experiment has as its target T1, IRAK4 (Homo sapiens, UniProt Q9NWZ3).
T1 sequence (Q9NWZ3 1-460): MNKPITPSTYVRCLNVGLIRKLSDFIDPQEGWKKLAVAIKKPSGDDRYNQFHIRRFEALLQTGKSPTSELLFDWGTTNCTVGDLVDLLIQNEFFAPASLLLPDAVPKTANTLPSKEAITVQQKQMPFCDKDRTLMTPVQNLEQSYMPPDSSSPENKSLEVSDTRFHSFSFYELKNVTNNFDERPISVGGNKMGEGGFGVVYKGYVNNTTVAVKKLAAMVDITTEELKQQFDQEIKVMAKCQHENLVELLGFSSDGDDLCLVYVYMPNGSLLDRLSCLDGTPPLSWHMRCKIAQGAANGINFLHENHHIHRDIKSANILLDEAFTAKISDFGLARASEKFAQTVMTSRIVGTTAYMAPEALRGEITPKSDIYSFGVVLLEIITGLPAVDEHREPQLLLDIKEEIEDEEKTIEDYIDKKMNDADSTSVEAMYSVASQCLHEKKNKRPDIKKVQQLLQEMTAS
Nature of the experiment: Reaction Biology NanoBRET target engagement assay, IRAK4. In kind it is cell-based. Particulars: transfected HEK-293 cells. An excerpt:
The NanoBRET assay measures kinase engagement in real time in the context of the intact cell. Unlike the previously described biochemical kinase assay methodologies in Examples 26-27, the NanoBRET assay measures the binding and activity characteristics under equilibrium conditions using full-length kinases in the presence of cellular concentrations of ATP in live, uncompromised cells. As such, the assay provides a more relevant assessment of kinase potency and selectivity that would be expected to be observed in the native cellular environment, where potency is often considerably lower than that observed in the isolated biochemical assays (Vasta, J. D. et al., (2018) Cell Chem. Biol. 25, 206-214). The assay uses a Kinase-NanoLuc® fusion vector expressing a kinase protein to which a luciferase tag has been added, a cell-permeant fluorescent NanoBRET™ tracer, a NanoLuc® substrate, and an extracellular NanoLuc® inhibitor. Upon expression of the luciferase-tagged kinase, cells will produce a strong BRET signal only in the presence of the NanoBRET™ tracer. The extracellular NanoLuc® inhibitor ensures that the BRET signal observed emanates only from live cells. Because the BRET signal has tight distance constraints, addition of the test compound will decrease the BRET signal if the compound competes with the NanoBRET™ tracer for binding to the kinase domain. Under the appropriate tracer conditions established by the manufacturer, quantitative intracellular affinity and relative potency can then be determined using Mass Action model equations.
HEK-293 cells were purchased from ATCC. FuGENEHD Transfection Reagent, Kinase-NanoLucfusion plasmids, Transfection Carrier DNA, NanoBRETTracers and dilution buffer, NanoBRETNano-Glo Substrate, Extracellular NanoLucInhibitor were obtained from Promega.
Assays were conducted following Promega assay protocol with some modifications. HEK-293 Cells were transiently transfected with Kinase-NanoLucFusion Vector DNA by FuGENEHD Transfection Reagent. Testing compounds were delivered into 384 well assay plate by Echo 550 (LabcyteInc, Sunnyvale, CA). Transfected cells were harvested and mixed with NanoBRETTracer Reagent and dispensed into 384 well plates and incubated at 37° C. in 5% CO2 cell culture incubator for 1 hour. The NanoBRETNano-Glo Substrate plus Extracellular NanoLucInhibitor Solution were added into the wells of the assay plate and incubated for 2-3 minutes at room temperature. The donor emission wavelength (460 nm) and acceptor emission wavelength (600 nm) were measured in the EnVisionplate reader. The BRET Ratios were calculated. BRET Ratio=[(Acceptor sample÷Donor sample)−(Acceptor no-tracer control÷Donor no-tracer control)]. The IC50 values of compounds were calculated with Prism GraphPad program.
• 1). Cultivate HEK-293 cells (70-80% confluence) appropriately prior to assay. Trypsinize and collect HEK-293 cells. • 2). Prepare lipid: DNA complexes as follows: • a. Prepare a 10 μg/ml solution of DNA in Opti-MEM without serum that consists of the following ratios of carrier DNA and DNA encoding NanoLuc® fusion. 9.0 μg/mL of Transfection Carrier DNA, 1.0 μg/mL of NanoLuc fusion vector DNA and 1 mL of Opti-MEM without phenol red. Mix thoroughly. • b. Add 30 μl of FuGENE HD Transfection Reagent into each milliliter of DNA mixture to form lipid:DNA complex. • c. Mix by inversion 10 times. • d. Incubate at ambient temperature for 20 minutes to allow complexes to form. • 3). In a sterile, conical tube, mix 1 part of lipid:DNA complex with 20 parts of HEK-293 cells in suspension. Mix gently by inversion 5 times. • 4). Dispense cells+lipid:DNA complex into a sterile tissue culture dish and incubate for 22-24 hours. 2. Addition of Test Compounds (Dry Plate Shooting)
Each test compound is delivered from the compound source plate to the wells of 384-well white NBS plate by Echo 550.
• 1). […]
(In general: Bioluminescence resonance energy transfer reports proximity on the nanometre scale.)
In turn, `COc1cc2ncc(-c3cccc(N[C@H]4CNC[C@@H]4C(F)(F)F)n3)n2nc1C1CC1` [Compound 99, 6-(6-cyclopropyl-7-methoxyimidazo[1,2-b]pyridazin-3-yl)-N-((3R,4S)-4-(trifluoromethyl)pyrrolidin-3-yl)pyridin-2-amine] showed an IC50 of 3 nM. This counts as single-digit nanomolar.
For the compound `COc1cc2ncc(-c3nc(N[C@@H]4CCCNC4)c(F)cc3F)n2nc1C1CC1` [Compound 106, (R)-6-(6-cyclopropyl-7-methoxyimidazo[1,2-b]pyridazin-3-yl)-3,5-difluoro-N-(piperidin-3-yl)pyridin-2-amine], the half-inhibitory concentration (IC50) was below 0.5 nM.
For `COc1cc2ncc(-c3nc(N[C@H]4CNC[C@@H]4F)c(F)cc3F)n2nc1C1CC1` [Compound 107, 6-(6-cyclopropyl-7-methoxyimidazo[1,2-b]pyridazin-3-yl)-3,5-difluoro-N-((3S,4S)-4-fluoropyrrolidin-3-yl)pyridin-2-amine] the value was below 0.5 nM; for `F[C@H]1CNC[C@@H]1Nc1cccc(-c2cnc3ccc(-c4cnn5ccccc45)nn23)n1` [Compound 9, N-((3S,4S)-4-fluoropyrrolidin-3-yl)-6-(6-(pyrazolo[1,5-a]pyridin-3-yl)imidazo[1,2-b]pyridazin-3-yl)pyridin-2-amine], 54 nM; for `c1cc(N[C@@H]2CCCNC2)nc(-c2cnc3ccc(-c4cnn5ccccc45)nn23)c1` [Compound 19, (R)-N-(piperidin-3-yl)-6-(6-(pyrazolo[1,5-a]pyridin-3-yl)imidazo[1,2-b]pyridazin-3-yl)pyridin-2-amine], 511 nM.
The value for `COc1cc2ncc(-c3cccc(N[C@H]4CNC[C@@H]4F)n3)n2nc1C(C)(O)C(F)(F)F` (single isomer, unassigned; fast-eluting) [Compound 133] was 98 nM.
The compound `COc1cc2ncc(-c3nc(N[C@H]4CNCC[C@@H]4F)c(F)cc3F)n2nc1C(C)(C)O` [Compound 128, 2-(3-(3,5-difluoro-6-(((3S,4S)-4-fluoropiperidin-3-yl)amino)pyridin-2-yl)-7-methoxyimidazo[1,2-b]pyridazin-6-yl)propan-2-ol] yielded a half-maximal inhibitory concentration (IC50) of 15 nM.
For `COc1cc2ncc(-c3cccc(N[C@H]4CNCC[C@@H]4F)n3)n2nc1C1CC1` [Compound 102, 6-(6-cyclopropyl-7-methoxyimidazo[1,2-b]pyridazin-3-yl)-N-((3S,4S)-4-fluoropiperidin-3-yl)pyridin-2-amine] the value was 2 nM; for `COc1cc2ncc(-c3nc(N[C@H]4CNC[C@@H]4F)c(F)cc3F)n2nc1C(C)(C)O` [Compound 126, 2-(3-(3,5-difluoro-6-(((3S,4S)-4-fluoropyrrolidin-3-yl)amino)pyridin-2-yl)-7-methoxyimidazo[1,2-b]pyridazin-6-yl)propan-2-ol], 7 nM.
For `COc1cc2ncc(-c3cccc(N[C@H]4CNC[C@@H]4F)n3)n2nc1C1CC1` [Compound 96, 6-(6-cyclopropyl-7-methoxyimidazo[1,2-b]pyridazin-3-yl)-N-((3S,4S)-4-fluoropyrrolidin-3-yl)pyridin-2-amine] the value was 2 nM; for `COc1cc2ncc(-c3nc(N[C@H]4CNCC[C@@H]4F)c(F)cc3F)n2nc1C1CC1` [Compound 108, 6-(6-cyclopropyl-7-methoxyimidazo[1,2-b]pyridazin-3-yl)-3,5-difluoro-N-((3S,4S)-4-fluoropiperidin-3-yl)pyridin-2-amine], below 0.5 nM; for `COc1cc2ncc(-c3nc(N[C@@H]4CCCNC4)c(F)cc3F)n2nc1C(C)(C)O` [Compound 127, (R)-2-(3-(3,5-difluoro-6-(piperidin-3-ylamino)pyridin-2-yl)-7-methoxyimidazo[1,2-b]pyridazin-6-yl)propan-2-ol], 30 nM.

The values are drawn from patent US12534469B2 (CHILDREN'S HOSPITAL MEDICAL CENTER, priority 2020, dated 2026).
